# Measurements as given in patent US20240226048A1, “METHODS OF TREATMENT USING BEMPEDOIC ACID” (Esperion Therapeutics, Inc., priority 2023, published 2024).
# Assay: CLEAR OUTCOMES trial: time-to-event cardiovascular efficacy end points
# Assay type: in vivo, human
# Settings: for Primary efficacy endpoint (MACE-4), Hazard Ratio (95% CI): Cox proportional hazards, P 0.004; for Fatal and non-fatal MI, Hazard Ratio (95% CI): P 0.002; for 3-component MACE, Hazard Ratio (95% CI): P 0.006
# From the text: The CLEAR OUTCOMES trial was a randomized, placebo-controlled, double-blind trial that enrolled patients at 1250 sites in 32 countries. An independent Data Monitoring Committee reviewed safety and efficacy data during the trial.
# Patients 18 to 85 years of age were eligible for enrollment if they met either of two criteria for increased cardiovascular risk, a prior cardiovascular event (secondary prevention) or clinical features that placed them at high risk for a cardiovascular event (primary prevention). (Nicholls S, Lincoff A M, Bays H E, et al. Rationale and design of the CLEAR-outcomes trial: Evaluating the effect of bempedoic acid on cardiovascular events in patients with statin intolerance. Am Heart J. 2021 May; 235: 104-112) All patients provided written informed consent. Patients had to report statin intolerance due to an adverse effect that started or increased during statin therapy and resolved or improved after statin therapy was discontinued. Patients could be enrolled if they tolerated a very low average daily statin dose (e.g., an average daily dose of rosuvastatin <5 mg, atorvastatin <10 mg, simvastatin <10 mg, lovastatin <20 mg, pravastatin <40 mg, fluvastatin <40 mg, or pitavastatin <2 mg). Other lipid-lowering therapies were permitted, including ezetimibe, niacin, bile acid resins, fibrates, and/or proprotein convertase subtilisin kexin type 9 (PCSK9) inhibitors. Full inclusion and exclusion criteria are provided in Nicholls et al. (Am Heart J. 2021).
# Eligible patients entered a 4-week run-in period during which patients were treated with single-blind placebo. If patients were intolerant to placebo treatment or if adherence was <80% by tablet count, they were not eligible for randomization. Patients who successfully completed the run-in period were randomly assigned in a 1:1 ratio to receive bempedoic acid at an oral dose of 180 mg or matching placebo, administered daily. Beginning 6 months after enrollment, the central laboratory notified the investigator if the patient's LDL-cholesterol level was ≥25% higher than baseline. These patients were counseled on healthy dietary guidelines and reminded to take all lipid-regulating medications. If repeat testing confirmed that LDL-cholesterol value met the threshold criteria, the provider could adjust the lipid-lowering treatment regimen per standard of care and local guidelines.
# The primary end point was the first occurrence of a composite of death from cardiovascular causes, nonfatal myocardial infarction (MI), nonfatal stroke, or coronary revascularization. The first key secondary end point was time to the first occurrence of the composite of cardiovascular death, nonfatal stroke or MI. Further key secondary end points included time to first occurrence of each of the following outcomes tested in hierarchical order, fatal or nonfatal MI, coronary revascularization, fatal or nonfatal stroke, death from cardiovascular causes, and all-cause mortality.
# This was an event-driven trial designed to provide at least 90% power to detect a 15% relative risk reduction for the primary composite end point at an overall two-sided significance level of 0.05. The trial required a minimum of 1620 primary composite events with >24 months of follow-up for all patients and at least 810 first key secondary end points. The average treatment duration was estimated to be 42 months and a lost-to-follow-up rate of 1% per year. Assuming a 3.59% annual event rate in the placebo group, enrollment of 12,600 patients was required, subsequently amended to 14,000. There were no interim efficacy analyses. A hierarchical approach was prespecified to evaluate sequentially each of the six key secondary efficacy end points with statistical significance at each step required to test the next hypothesis, thereby preserving the study-wise Type I error rate at 5%. All analyses were based on the intent-to-treat principle. […]
# [1] = prespecified subgroup, interaction P=0.03
# [2] = vs placebo, listed as bempedoic acid
structure (smiles),measurement,setting,value
"CC(C)(CCCCCC(O)CCCCCC(C)(C)C(=O)O)C(=O)O [Bempedoic Acid, Bempedoic acid]","3-component MACE, % of patients","180 mg oral daily, N = 6992",8.2%
same,"5 component MACE, % of patients","180 mg oral daily, N = 6992",11.9%
same,"All-cause mortality, % of patients","180 mg oral daily, N = 6992",6.2%
same,"All-cause mortality, nonfatal MI, nonfatal stroke, or coronary revascularization, % of patients","180 mg oral daily, N = 6992",13.8%
same,"All-cause mortality, nonfatal MI, nonfatal stroke, or coronary revascularization, number of patients","180 mg oral daily, N = 6992",962 number of patients
same,"All-cause mortality, number of patients","180 mg oral daily, N = 6992",434 number of patients
same,"Coronary revascularization, % of patients","180 mg oral daily, N = 6992",6.2%
same,"Coronary revascularization, number of patients","180 mg oral daily, N = 6992",435 number of patients
same,"Death from cardiovascular causes, % of patients","180 mg oral daily, N = 6992",3.8%
same,"Death from cardiovascular causes, number of patients","180 mg oral daily, N = 6992",269 number of patients
same,"Fatal MI, % of patients","180 mg oral daily, N = 6992",0.4%
same,"Fatal MI, number of patients","180 mg oral daily, N = 6992",29 number of patients
same,"Fatal and non-fatal MI, % of patients","180 mg oral daily, N = 6992",3.7%
same,"Fatal and non-fatal MI, number of patients","180 mg oral daily, N = 6992",261 number of patients
same,"Fatal and non-fatal stroke, % of patients","180 mg oral daily, N = 6992",1.9%
same,"Fatal and non-fatal stroke, number of patients","180 mg oral daily, N = 6992",135 number of patients
same,"Fatal and nonfatal hemorrhagic stroke, % of patients","180 mg oral daily, N = 6992",0.3%
same,"Fatal and nonfatal hemorrhagic stroke, number of patients","180 mg oral daily, N = 6992",20 number of patients
same,"Fatal and nonfatal non-hemorrhagic stroke, % of patients","180 mg oral daily, N = 6992",1.7%
same,"Fatal and nonfatal non-hemorrhagic stroke, number of patients","180 mg oral daily, N = 6992",118 number of patients
same,"Fatal stroke, % of patients","180 mg oral daily, N = 6992",0.3%
same,"Fatal stroke, number of patients","180 mg oral daily, N = 6992",18 number of patients
same,"Hospitalization for unstable angina, % of patients","180 mg oral daily, N = 6992",1.3%
same,"Hospitalization for unstable angina, number of patients","180 mg oral daily, N = 6992",91 number of patients
same,"Non-fatal MI, % of patients","180 mg oral daily, N = 6992",3.4%
same,"Non-fatal MI, number of patients","180 mg oral daily, N = 6992",236 number of patients
same,"Non-fatal stroke, % of patients","180 mg oral daily, N = 6992",1.7%
same,"Non-fatal stroke, number of patients","180 mg oral daily, N = 6992",119 number of patients
same,"Primary efficacy endpoint (MACE-4), % of patients","180 mg oral daily, N = 6992, median follow-up 40.6 months",11.7%
same,"5 component MACE, number of patients","MACE-4 or hospitalization for unstable angina (MACE-5), 180 mg oral daily, N = 6992",831 number of patients
same,"effect on other key secondary end points: time to first occurrence of stroke, death from cardiovascular causes, all-cause mortality",compared with placebo,no significant effects
same,"Primary efficacy endpoint (MACE-4), number of patients","death from cardiovascular causes, nonfatal MI, nonfatal stroke, or coronary revascularization, 180 mg oral daily, N = 6992, median follow-up 40.6 months",819 number of patients
same,"3-component MACE, number of patients","death from cardiovascular causes, nonfatal MI, or nonfatal stroke (MACE-3), 180 mg oral daily, N = 6992",575 number of patients
same,"New-onset type 2 diabetes mellitus, number of patients","n/N in patients with baseline glycemic status of no diabetes, 180 mg oral daily",429/3848
same,"New-onset type 2 diabetes mellitus, % of patients","patients with baseline glycemic status of no diabetes, 180 mg oral daily",(11.1) %
same,"HR for the primary end point, primary prevention population",[1],0.68
same,"HR for the primary end point, secondary prevention population",[1],0.91
same,"5 component MACE, Hazard Ratio (95% CI)",vs placebo,0.86 (0.78-0.94)
same,"All-cause mortality, Hazard Ratio (95% CI)",vs placebo,1.03 (0.90-1.18)
same,"All-cause mortality, nonfatal MI, nonfatal stroke, or coronary revascularization, Hazard Ratio (95% CI)",vs placebo,0.89 (0.82-0.97)
same,"Death from cardiovascular causes, Hazard Ratio (95% CI)",vs placebo,1.04 (0.88-1.24)
same,"Fatal MI, Hazard Ratio (95% CI)",vs placebo,1.38 (0.79-2.42)
same,"Fatal and non-fatal stroke, Hazard Ratio (95% CI)",vs placebo,0.85 (0.67-1.07)
same,"Fatal and nonfatal hemorrhagic stroke, Hazard Ratio (95% CI)",vs placebo,2.21 (1.01-4.85)
same,"Fatal and nonfatal non-hemorrhagic stroke, Hazard Ratio (95% CI)",vs placebo,0.78 (0.61-0.99)
same,"Fatal stroke, Hazard Ratio (95% CI)",vs placebo,1.12 (0.57-2.20)
same,"Hospitalization for unstable angina, Hazard Ratio (95% CI)",vs placebo,0.66 (0.50-0.86)
same,"Non-fatal stroke, Hazard Ratio (95% CI)",vs placebo,0.82 (0.64-1.05)
same,reduction in coronary revascularization,vs placebo,19%
same,"reduction in the composite of death from cardiovascular causes, stroke or MI",vs placebo,15%
same,reduction in the incidence of fatal or nonfatal MI,vs placebo,23%
same,"reduction in the primary composite end point (death from cardiovascular causes, stroke, MI, or coronary revascularization)",vs placebo,13%
same,"Primary efficacy endpoint (MACE-4), Hazard Ratio (95% CI)",vs placebo,0.87 (0.79-0.96)
same,"Primary efficacy endpoint (MACE-4), Hazard Ratio (95% CI)",[2],0.87
same,"Coronary revascularization, Hazard Ratio (95% CI)","vs placebo, P 0.001",0.81
same,"Fatal and non-fatal MI, Hazard Ratio (95% CI)",vs placebo,0.77 (0.66-0.91)
same,"Fatal and non-fatal MI, Hazard Ratio (95% CI)",[2],0.77
same,"3-component MACE, Hazard Ratio (95% CI)",vs placebo,0.85 (0.76-0.96)
same,"3-component MACE, Hazard Ratio (95% CI)",[2],0.85
same,"New-onset type 2 diabetes mellitus, Hazard Ratio (95% CI)","vs placebo, patients with no diabetes at baseline",0.95 (0.83-1.09)
